Series [1] concerns the target T1, human GLP-1 receptor (hGLP-1R) (Homo sapiens, UniProt P43220).
T1 construct: expressed in transfected cells
Description: GLP-1 receptor assay, method B (CRE-luciferase reporter, BHK cells, 384-well). The class given is cell-based. Background: In a reporter assay the amount or activity of a reporter protein is the signal.
Description: To assess how the activation of the receptors is potentially influenced by the presence of human serum albumin (HSA), the in vitro assays were performed in the absence of HSA and presence of 1% (w/v) HSA.
Cells at approximately 80-90% confluence were washed once in PBS (Gibco 14190-094) and loosened from the cell flasks with Versene (Gibco, 15040-033). […] Cells were aliquoted and stored at −180° C. until use.
The assay buffer consisted of DMEM without phenol red (Gibco, 11880-028) supplemented with 1× GlutaMAX (Gibco, 35050-038), 10 mM HEPES (Gibco, 15630-056), 1% (w/v) ovalbumin (Sigma, A5503) and 0.1% (v/v) Pluronic F-68 (Gibco, 24040-032) either with HSA or without HSA (Sigma, A9511).
Serial dilutions were transferred to a 384-well assay plate (PerkinElmer/Revvity, 6007688) and mixed with an equal volume (10 μL) of assay buffer without or with 3% (w/v) HSA (Sigma, A-9511). Frozen stocks of hGLP-1R BHK Cre-Luc cells were thawed in a 37° C. water bath, washed once in PBS (Gibco 14190-094), diluted to 1.5×10^5 (1.5E+5) cells/mL in assay buffer (without HSA) and added (10 μL) to each well of the 384-well assay plate. After a short centrifugation, the assay plates were incubated for 3 hours at 37° C. in 5% CO2 and let to equilibrated at room temperature for 10 minutes before the addition of 30 μL steadylite Plus™ PerkinElmer/Revvity, 6066759) per well. Plates were sealed and incubated at room temperature with gentle shaking for 30 minutes while protected from light. Luminescence was detected on a luminescence plate reader e.g. a Synergy 2 (BioTek).

Series [2] addresses T2, human GIP receptor (hGIPR) (Homo sapiens, UniProt P48546).
T2 construct: expressed in transfected cells
T2 sequence (P48546 22-466): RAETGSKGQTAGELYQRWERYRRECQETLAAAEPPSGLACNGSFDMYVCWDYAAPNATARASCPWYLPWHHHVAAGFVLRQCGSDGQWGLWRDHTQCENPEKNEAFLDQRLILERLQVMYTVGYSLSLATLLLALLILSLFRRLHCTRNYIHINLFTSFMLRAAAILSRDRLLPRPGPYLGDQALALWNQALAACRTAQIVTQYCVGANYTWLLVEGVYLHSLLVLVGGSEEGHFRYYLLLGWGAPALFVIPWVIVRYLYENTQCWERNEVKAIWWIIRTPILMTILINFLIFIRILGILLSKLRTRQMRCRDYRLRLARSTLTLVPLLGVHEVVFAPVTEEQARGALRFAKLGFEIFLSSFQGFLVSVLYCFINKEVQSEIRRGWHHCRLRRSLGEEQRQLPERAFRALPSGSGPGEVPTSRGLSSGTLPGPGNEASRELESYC
Description: GIP receptor assay, method B (CRE-luciferase reporter, BHK cells, 384-well). The class given is cell-based.

Series [3] addresses T3, human amylin receptor (hAMYR3) (Homo sapiens, UniProt O60896+P30988).
T3 construct: host or cells: BHK cells (Hollex-1 line expressing hCTR(a) and CRE-Luc), further transfected with human RAMP3
Description: Amylin receptor assay, method B (CRE-luciferase reporter, BHK cells). The class given is cell-based. The procedure, abridged: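 BHK cells with CRE-luciferase, co-expressing hAMYR3 and transfected with human RAMP3, seeded overnight, then exposed 3 h at 37 °C to compound. Buffer: phenol red-free DMEM, 10 mM HEPES, 1% ovalbumin, with 0% or 1% (w/v) HSA. Luminescence read after 30 min with steadylite Plus.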

The nature of series [4]: Chemical stability assessment in formulation (UPLC-UV-MS purity loss at 37° C.). The class given is physicochemical. The following applies: 8 mM phosphate buffer pH 7.4, 1 mg/mL, 2 weeks. In a few lines:
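Peptides at target 1 mg/mL in 8 mM phosphate buffer, pH adjusted to 7.4, incubated in capped vials at 37° C. and sampled over 2 weeks, frozen until analysis. Purity followed by UPLC-UV-MS with a 0.1% formic acid water/acetonitrile gradient.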

Series [5] in a line: Pharmacokinetic study in minipigs (i.v.). The class given is in vivo, Göttingen minipigs. As to conditions: i.v. administration to minipigs, 2 nmol/kg. Here is the method:
This is done in a pharmacokinetic (PK) study, where the terminal half-life (t1/2) of the compound or derivative in question is determined. By terminal half-life is meant the time it takes to halve a certain plasma concentration in the terminal elimination phase.
Female Göttingen minipigs, obtained from Ellegaard Göttingen Minipigs (Dalmose, Denmark), approximately 8-12 months of age and weighing approximately 20-30 kg were used in the studies.
After three weeks of acclimatisation two permanent central venous catheters were implanted in vena cava caudalis in each animal. The animals were allowed at least 10 days recovery after the surgery and were then used for repeated pharmacokinetic studies with a suitable wash-out period between successive dosing.
The compounds of the invention were formulated (40 nmol/ml) in the following vehicle: 8 mM phosphate; 250 mM glycerol; 0.007% polysorbate 20, pH 7.4.
Blood samples (for example 1.3 ml) were collected in EDTA (1.3 ml tube containing K3EDTA to yield 1.6 mg K3EDTA/ml blood) coated tubes and then centrifuged at 4° C. and 2000×g for 10 minutes.
Plasma was within 30 min after centrifugation pipetted into Micronic tubes stored on dry ice and were afterwards kept at −20° C. until analysed for plasma concentration of the compounds using LCMS.
Plasma concentrations of the peptides of the invention were assayed by plasma protein precipitation and analysed by liquid chromatography mass spectrometry (LC-MS). Calibrators were prepared by spiking blank plasma from minipigs with the compounds in the typical range from 0.05 to 200 nM. […] The supernatant was diluted with 1 volumes of Milli-Q water containing 1% Formic acid before injection on the LC-MS system. Individual plasma concentration-time profiles were analysed by a non-compartmental pharmacokinetic method (NCA) in Phoenix v. 6.4 (Pharsight Inc., Mountain View, CA, USA), and the resulting terminal half-lives (harmonic mean) determined. The LC-MS analysis was carried out using a TurboFlow HPLC system from Thermo Fisher Scientific (Bremen, Germany) coupled to either a Q Exactive Orbitrap or Altis Triple Quadrupole (TQ) Mass Spectrometer. […] The Orbitrap mass spectrometer were operating in positive ionization mode with a spray voltage of 4.0 kV using Parallel Reaction Monitoring scan mode using 5 m/z isolation windows on the most abundant charge state of the compounds with a resolution of 35K on the Orbitrap MS.
The data was processed using the Quan Browser in the Xcalibur software from Thermo Fisher Scientific (Bremen, Germany) by fitted the data to linear calibration curves (weighed 1/x^2), used for calculating the concentration in the plasma samples. Quality control samples were included.

In the next series the target is T4, human GIP receptor (human, UniProt P48546 22-466).
T4 sequence (looked up): T2 sequence (P48546 22-466)
Description: cell-based or functional assay.

For series [6], the target named is T5, human amylin-3(a) receptor (human, UniProt P30988 25-474; O60896 24-148).
T5 sequence (looked up) 1: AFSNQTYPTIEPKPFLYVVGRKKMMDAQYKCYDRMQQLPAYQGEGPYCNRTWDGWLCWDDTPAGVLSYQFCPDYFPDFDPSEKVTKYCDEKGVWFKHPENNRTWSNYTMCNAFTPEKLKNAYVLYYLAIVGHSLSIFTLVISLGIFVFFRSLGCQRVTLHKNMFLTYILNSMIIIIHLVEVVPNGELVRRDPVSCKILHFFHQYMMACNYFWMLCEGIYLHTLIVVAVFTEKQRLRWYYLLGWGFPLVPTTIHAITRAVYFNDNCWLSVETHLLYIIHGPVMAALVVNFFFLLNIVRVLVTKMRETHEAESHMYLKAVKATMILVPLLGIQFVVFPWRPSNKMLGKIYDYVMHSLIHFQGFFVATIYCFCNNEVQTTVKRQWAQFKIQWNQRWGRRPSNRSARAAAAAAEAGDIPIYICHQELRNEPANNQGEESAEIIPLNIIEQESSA
T5 sequence (looked up) 2: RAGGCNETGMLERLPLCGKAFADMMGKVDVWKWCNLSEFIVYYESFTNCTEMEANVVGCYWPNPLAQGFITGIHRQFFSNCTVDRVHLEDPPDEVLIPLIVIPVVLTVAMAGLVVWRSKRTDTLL
Description: cell-based or functional assay.

Read-outs that look alike come from different tables or passages of the source. Square brackets hold non-standard residues; d marks the D form. Aib = CC(C)(N)C(=O)O

T1 sequence (P43220 24-463): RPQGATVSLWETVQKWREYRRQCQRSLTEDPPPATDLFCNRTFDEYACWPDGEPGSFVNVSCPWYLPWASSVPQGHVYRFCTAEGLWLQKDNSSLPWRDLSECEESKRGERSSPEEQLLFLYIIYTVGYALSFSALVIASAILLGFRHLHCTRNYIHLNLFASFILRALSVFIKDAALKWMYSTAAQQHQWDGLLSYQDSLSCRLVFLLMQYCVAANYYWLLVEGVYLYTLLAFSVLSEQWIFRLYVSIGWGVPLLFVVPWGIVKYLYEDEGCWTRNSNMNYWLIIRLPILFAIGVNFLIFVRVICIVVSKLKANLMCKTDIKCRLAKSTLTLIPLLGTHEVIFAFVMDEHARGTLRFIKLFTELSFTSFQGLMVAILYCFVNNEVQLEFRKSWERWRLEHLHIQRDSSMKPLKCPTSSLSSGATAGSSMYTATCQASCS

On to `CC[C@H](C)[C@H](NC(=O)[C@H](CCC(=O)O)NC(=O)[C@H](CCC(=O)O)NC(=O)[C@H](CC(C)C)NC(=O)[C@H](CC(C)C)NC(=O)[C@@H](NC(=O)[C@H](CO)NC(=O)[C@H](Cc1ccc(O)cc1)NC(=O)[C@H](CC(=O)O)NC(=O)[C@H](CO)NC(=O)[C@@H](NC(=O)[C@H](Cc1ccccc1)NC(=O)[C@@H](NC(=O)CNC(=O)[C@H](CCC(=O)O)NC(=O)C(C)(C)NC(=O)[C@@H](N)Cc1ccc(O)cc1)[C@@H](C)O)[C@@H](C)O)[C@@H](C)CC)C(=O)N[C@@H](C)C(=O)N[C@@H](C)C(=O)N[C@@H](CCCNC(=N)N)C(=O)N[C@@H](CCC(=O)O)C(=O)N[C@@H](Cc1ccccc1)C(=O)N[C@H](C(=O)N[C@@H](CCC(=O)O)C(=O)N[C@@H](Cc1c[nH]c2ccccc12)C(=O)N[C@@H](CC(C)C)C(=O)N[C@@H](CC(C)C)C(=O)N[C@@H](C)C(=O)NCC(=O)NCC(=O)N1CCC[C@H]1C(=O)N[C@@H](CO)C(=O)N[C@@H](CO)C(=O)N[C@@H](CCC(=O)O)C(=O)N[C@@H](C)C(=O)NCC(=O)N[C@@H](CCC(N)=O)C(=O)N[C@@H](C)C(=O)N1CCC[C@H]1C(=O)NCC(=O)N[C@@H](CCC(N)=O)C(=O)N[C@@H](C)C(=O)N1CCC[C@H]1C(=O)NCC(=O)N[C@@H](C)C(=O)N[C@@H](CO)C(=O)N[C@@H](Cc1c[nH]cn1)C(=O)N[C@@H](CC(C)C)C(=O)N[C@@H](CO)C(=O)N[C@H](C(=O)N[C@@H](C)C(=O)N[C@@H](CCC(N)=O)C(=O)N[C@H](C(=O)N[C@@H](CCC(N)=O)C(=O)N[C@@H](CCCNC(=N)N)C(=O)N[C@@H](CC(C)C)C(=O)N[C@@H](CO)C(=O)N[C@@H](C)C(=O)N[C@@H](CCC(=O)O)C(=O)N[C@@H](CC(C)C)C(=O)N[C@@H](Cc1c[nH]cn1)C(=O)N[C@@H](CCCCNC(=O)COCCOCCNC(=O)COCCOCCNC(=O)CC[C@H](NC(=O)CCCCCCCCCCCCCCCCCCC(=O)O)C(=O)O)C(=O)N[C@@H](CC(C)C)C(=O)N[C@@H](C)C(=O)N[C@H](C(=O)N[C@@H](CCC(=O)O)C(=O)N1CCC[C@H]1C(=O)N[C@@H](CCCNC(=N)N)C(=O)N[C@H](C(=O)N[C@@H](CCC(=O)O)C(=O)N[C@H](C(=O)NCC(=O)N[C@@H](CO)C(=O)NCC(=O)N[C@@H](CO)C(=O)N1CCC[C@H]1C(N)=O)[C@@H](C)O)[C@@H](C)O)[C@@H](C)O)[C@@H](C)O)[C@@H](C)O)[C@@H](C)CC` [Compound 165], for which the EC50 in series [1] (hGLP-1R Potency, 1% HSA, EC50, methods B, in the presence of 1% HSA) was determined as 88.8 pM; in series [1] (method B, absence of HSA, read-out: hGLP-1R Potency, no HSA, EC50), 25.1 pM; in series [2] (hGIPR Potency, 1% HSA, EC50, methods B, in the presence of 1% HSA), 7.64 pM; in series [2] (method B, absence of HSA, read-out: hGIPR Potency, no HSA, EC50) it was 2.39 pM; in series [3] (hAMYR3 Potency, 1% HSA, EC50, methods B, in the presence of 1% HSA), 537 pM; in series [3] (method B, absence of HSA, read-out: hAMYR3 Potency, no HSA, EC50), 9.4 pM. Also, the “Purity loss per week at 37° C.” value in series [4] came out at 1.0%.
Turning to `CC[C@H](C)[C@H](NC(=O)[C@H](CCC(=O)O)NC(=O)[C@H](CCC(=O)O)NC(=O)[C@H](CC(C)C)NC(=O)[C@H](CC(C)C)NC(=O)[C@@H](NC(=O)[C@H](CO)NC(=O)[C@H](Cc1ccc(O)cc1)NC(=O)[C@H](CC(=O)O)NC(=O)[C@H](CO)NC(=O)[C@@H](NC(=O)[C@H](Cc1ccccc1)NC(=O)[C@@H](NC(=O)CNC(=O)[C@H](CCC(=O)O)NC(=O)C(C)(C)NC(=O)[C@@H](N)Cc1ccc(O)cc1)[C@@H](C)O)[C@@H](C)O)[C@@H](C)CC)C(=O)N[C@@H](C)C(=O)N[C@@H](C)C(=O)N[C@@H](CCCNC(=N)N)C(=O)N[C@@H](CCC(=O)O)C(=O)N[C@@H](Cc1ccccc1)C(=O)N[C@H](C(=O)N[C@@H](CCC(=O)O)C(=O)N[C@@H](Cc1c[nH]c2ccccc12)C(=O)N[C@@H](CC(C)C)C(=O)N[C@@H](CC(C)C)C(=O)N[C@@H](C)C(=O)NCC(=O)NCC(=O)N1CCC[C@H]1C(=O)N[C@@H](CO)C(=O)N[C@@H](CO)C(=O)NCC(=O)N[C@@H](C)C(=O)NCC(=O)N[C@@H](CCC(N)=O)C(=O)N[C@@H](C)C(=O)N1CCC[C@H]1C(=O)NCC(=O)N[C@@H](CCC(N)=O)C(=O)N[C@@H](C)C(=O)N1CCC[C@H]1C(=O)N[C@@H](CC(C)C)C(=O)N[C@@H](C)C(=O)N[C@@H](CO)C(=O)N[C@@H](Cc1c[nH]cn1)C(=O)N[C@@H](CC(C)C)C(=O)N[C@@H](CO)C(=O)N[C@H](C(=O)N[C@@H](C)C(=O)N[C@@H](CCC(N)=O)C(=O)N[C@H](C(=O)N[C@@H](CCC(N)=O)C(=O)N[C@@H](CCCNC(=N)N)C(=O)N[C@@H](CC(C)C)C(=O)N[C@@H](CO)C(=O)N[C@@H](C)C(=O)N[C@@H](CCC(=O)O)C(=O)N[C@@H](CC(C)C)C(=O)N[C@@H](Cc1c[nH]cn1)C(=O)N[C@@H](CCCCNC(=O)COCCOCCNC(=O)COCCOCCNC(=O)CC[C@H](NC(=O)CCCCCCCCCCCCCCCCCCC(=O)O)C(=O)O)C(=O)N[C@@H](CC(C)C)C(=O)N[C@@H](C)C(=O)N[C@H](C(=O)N[C@@H](CC(C)C)C(=O)N1CCC[C@H]1C(=O)N[C@@H](CCCNC(=N)N)C(=O)N[C@H](C(=O)N[C@@H](CCC(=O)O)C(=O)N[C@H](C(=O)NCC(=O)N[C@@H](CO)C(=O)NCC(=O)N[C@@H](CO)C(=O)N1CCC[C@H]1C(N)=O)[C@@H](C)O)[C@@H](C)O)[C@@H](C)O)[C@@H](C)O)[C@@H](C)O)[C@@H](C)CC` [Compound 125], the “Terminal half-life t1/2” value in series [5] turned out to be 100 h. The “Purity loss per week at 37° C.” value in series [4] is 0.5%.

B1: Compound 219 (peptide)
peptide: Y[Aib]EGTFTSDYSILLEEIAAREFIEWLLAGGPSSGAGQAPGQAEGASHLSTAQTQRLSAELHKLATLPRTETGSGSP-NH2
modifications: also: further groups not given here
For the molecule B1, in the series with human GIP receptor, the “hGIPR Potency, no HSA, EC50 [pM]” value is 0.5 pM. Also, the “hAMYR3 Potency, no HSA, EC50 [pM]” value in series [6] is 5 pM.

One may read the EC50 as the concentration at which the effect is half-maximal.

These data come from patent US20260174875A1 (Novo Nordisk A/S, priority 2023, published 2026).
